Patent US20090155785A1, “REAL-TIME COLORIMETRIC SCREENING INHIBITORS OF ENDONUCLEASE WITH GOLD NANOPARTICLE SUBSTRATE” (NORTHWESTERN UNIVERSITY, priority 2007, published 2009)

What was measured:
duplex DNA = assay: Melting temperature of duplex DNA (without nanoparticles) in the presence of DNA binding molecule; conditions: DNA duplex 2.0 μM, sodium phosphate buffer 10 mM pH 7.0, NaCl 100 mM, DNA binding molecule 5.0 μM, control 61.0
DNase I [1] = assay: Colorimetric DNase I inhibition assay, hybridized gold nanoparticle aggregates without linker oligonucleotide (Example 1); format: biochemical; conditions: inhibitor 1 μM, DNase I 15 units/ml, extinction at 520 nm, room temperature; control 6.8 min
Experimental: In addition to screening enzyme activity, one can easily use the assay to evaluate the efficiency of inhibitors of DNase I. In a typical screening experiment, DNase I (15 units/ml) was added to solutions of the DNA-linked gold nanoparticle aggregates in the presence of one of the following DNA binding molecules: amsacrine (AMSA), anthraquinone-2-carboxylic acid (AQ2A), 9-aminoacridine (9-AA), ellipticine (EIPT), daunorubicin (DNR), ethidium bromide (EB) and 4′,6-diamidedino-2-phenylindole (DAPI) (1 μM), respectively. These DNA binding molecules are known to inhibit DNase I. (See R. A. Ikeda, P. B. Dervan, J. Am. Chem. Soc., 104: 296 (1982); S. M. Forrow, M. Lee, R. L. Souhami, J. A. Hartley, Chem. Biol. Interact., 96: 125 (1995); P. G. Baraldi, A. Bovero, F. Fruttarolo, D. Preti, M. A. Tabrizi, M. G. Pavani, R. Romagnoli, Med. Res. Rev., 24: 475 (2004)). Extinction was monitored at 520 nm as a function of time (sample scan rate=5 min^−), and the color of the solution was followed with the naked eye. The time at which 50% of the aggregate is hydrolyzed (TH) can be used as a measure of inhibition (FIG. 6). The inhibitors decrease DNase I activity and increase the TH and, therefore, the corresponding time required for a color change in the solution. […] The trend is determined based on TH, which is consistent with the relative binding affinities of the inhibitors to DNA, as determined by measuring the melting temperature of the duplex DNA in the presence of each DNA-binding molecule (FIG. 6 and Table 1 below).
The relative binding affinities of the inhibitors to DNA are consistent with the hydrolysis time (TH) of the aggregates by DNase I in the presence of a specific inhibitor. TH is determined by measuring the extinction at 520 nm and determining when half of the particles composing the aggregates have been released.
AuNP-1 and AuNP-2 were functionalized with 3′-thiol-modified 30-mer oligonucleotides (AuNP-1, DNA-1 sequence: 5′-[…]-A10-SH-3′, SEQ ID NO: 1; AuNP-2, DNA-2 sequence: 5′-[…]-A10-SH-3′, SEQ ID NO:2) using previously reported methods. (See J. J. Storhoff, R. Elghanian, R. C. Mucic, C. A. Mirkin, R. L. Letsinger, J. Am. Chem. Soc., 120: 1959 (1998)). After combining 1 ml aliquots of the two probes, AuNP-1 and AuNP-2 (each at 3 nM), in hybridization buffer (50 mM Tris-HCl buffer pH 7.0, 2 mM MgCl2), the mixture was heated to 90° C. and held at this temperature for 10 minutes.
The pre-prepared gold nanoparticle aggregates were washed (3 times) with DNase I buffer (10 mM sodium phosphate buffer pH 7.0, 0.75 mM MgCl2). They were then resuspended in 1 ml of DNase I buffer. A 10 μL aliquot of each of the endonuclease inhibitors (0.1 mM) was then added to a 1 ml solution of the aggregates, respectively, and incubated for 10 minutes. The assay was initiated by adding DNase I, and the hydrolysis kinetics were monitored by UV-vis spectroscopy (Cary 5000, Varian). The solution was continuously stirred with a magnetic stir bar at room temperature to keep the aggregates suspended.

DNase I [2] = assay: Colorimetric DNase I inhibition assay, ligated gold nanoparticle aggregates with linker oligonucleotide (Example 2); format: biochemical; conditions: for t (releasing time; time required to hydrolyze 50% of the aggregates): inhibitor 1 μM, DNase I 15 units/ml, extinction at 520 nm, ligated aggregates, control 9.5 min
Experimental: A typical screening experiment was slated by adding the DNase I to solutions of the gold nanoparticle aggregates in the presence of one of the DNA binding molecules, amsacrine (AMSA), anthrquinone-2-carboxylic acid (AQ2A), 9-aminoacridine (9-AA), ellipticine (EIPT), daunorubicin (DNR), ethidium bromide (EB) and 4′,6-diamidedino-2-phenylindole (DAPI) (1 μM), respectively. The color changes of the solutions were monitored at 520 nm by UV-vis spectrometry over time (sample scan rate=2 min^−1). The inhibitors can decrease DNase I activity and increase the hydrolysis time and the corresponding time required for a color change in the solution. Thus, we could determine the relative activities of different endonuclease inhibitors by measuring the time required to hydrolyze 50% of the aggregates (t). […] The hydrolysis time is consistent with relative binding affinities of inhibitors to DNA by determining the melting temperature (Tm) of duplex DNA at 260 nm in the presence of each DNA-binding molecule.
High-throughput screening is widely used for the identification of hit compounds from combinatorial libraries. (See P. A. Johnston, P. A. Johnston, Drug Discovery Today, 7: 353 (2002); D. L. Boger, J. Deshamais, K. Capps, Angew. Chem. Int. Ed., 42: 4138 (2003); S. Wang, T. B. Sim, Y.-S. Kim, Y.-T. Chang, Cum Opin. Cham. Biol., 8: 371 (2004)). We have examined the application of the gold nanoparticle aggregates for high throughput screening of endonuclease inhibitors by visual inspection. […] Thus, we can determine potencies of inhibitor using color change as a function of time. […] The trend of potencies of inhibitors was determined to be DAPI>EB>DNR>9-AA, EIPT, and AQ2A>AMSA, which is consistent with the control experiments involving serial analysis of each inhibitors with nanoparticle-free duplex DNA.
Two separate types of DNA-AuNPs were prepared by functionalizing 13 nm gold nanoparticles with two different thiol-modified oligonucleotide strands, AuNP-3 and AuNP-4. AuNP-3 was functionalized with 3′-hydroxyl-modified and 5′-thiol-modified 15-mer oligonucleotides (DNA-3 sequence: 5′-SH-A10-CGTTAGGACTTACGC-OH-3′, SEQ ID NO:3). DNA-3 is complementary to one-half of the 30-mer linker oligonucleotide (DNA-linker oligonucleotide sequence: 5′ […]-3′, SEQ ID NO:5). AuNP-4 was functionalized with 3′-thiolated and 5′-phosphorylated 15-mer oligonucleotides (DNA-4: 5′-PO4^3−-TTATAACTATTCCTA-A10-SH-3′, SEQ ID NO:4) that are complementary to the other half of the linker-oligonucleotide. After combining the three components, AuNP-3 and AuNP-4 (each at 3 nM) as well as the linker-oligonucleotides (3 μM), in the presence of ligation buffer (50 mM Tris-HCl buffer pH 7.5, 5 mM MgCl2, […], 0.05 mg/ml BSA, T4 DNA Ligase 4.000 units/ml), the DNAs assemble to form a three-strand DNA hybridization complex. First the linker-oligonucleotide acts as templates to co-align the 3′-hydroxyl group of the DNA-3 and the 5′-phosphate group of the DNA-4. Then the T4 DNA Ligase catalyzes the formation of a phosphodiester bond between the 3′-hydroxyl and the 5′-phosphate groups of DNA-3 and DNA-4, covalently joining DNA-3 and DNA-4 to form a 30-mer oligonucleotide. This method yield stable 30-base-pair double stranded links between the AuNPs. Since the nanoparticles aggregate, a red-to-purple color change can be observed.
The prepared gold nanoparticle aggregate was washed (3 times) with DNase I buffer (10 mM sodium phosphate buffer pH 7.0, 0.25 mM MgCl2). The assay was initiated by adding DNase I (10-50 units/ml) and the hydrolysis kinetics were monitored by a UV-vis spectrum at the extinction of 520 nm with stirring at room temperature.

| Compound | Tm (melting temperature of duplex DNA in the presence of endonuclease inhibitor) (duplex DNA; Table 1) | Tm (melting temperature of duplex DNA in the presence of endonuclease inhibitor) (duplex DNA; Table 2, at 260 nm) | TH (time at which 50% of the aggregate is hydrolyzed by DNase I) (DNase I [1]) | t (releasing time; time required to hydrolyze 50% of the aggregates) (DNase I [2]) | color change of aggregate solution by visual inspection after adding DNase I (FIG. 10) (DNase I [2]; visual inspection, purple to red as a function of reaction time, no or slow change indicates inhibition) |
| --- | --- | --- | --- | --- | --- |
| Nc1c2ccccc2nc2ccccc12 [9-AA, 9-aminoacridine] | 62.5 °C | 62.5 °C | 24.6 min | 16.0 min | – |
| COc1cccc2c1C(=O)c1c(O)c3c(c(O)c1C2=O)C[C@@](O)(C(C)=O)C[C@@H]3O[C@H]1C[C@H](N)[C@H](O)[C@H](C)O1 [DNR, daunorubicin] | 65.5 °C | 65.5 °C | 43.2 min | 31.5 min | – |
| O=C(O)c1ccc2c(c1)C(=O)c1ccccc1C2=O [AQ2A, anthraquinone-2-carboxylic acid] | 62.5 °C | 62.5 °C | 19.6 min | 14.5 min | – |
| N=C(N)c1ccc(-c2cc3ccc(C(=N)N)cc3[nH]2)cc1 [DAPI, 4′,6-diamidedino-2-phenylindole] | 77.0 °C | 77.0 °C | 101.2 min | >1440 min | remains light purple throughout the examination time |
| Cc1c2ccncc2c(C)c2c1[nH]c1ccccc12 [EIPT, ellipticine] | 63.0 °C | 63.0 °C | 25.2 min | 15.0 min | – |
